Experimental data taken from patent publication US20170121295A1, “POLYCYCLIC LPA1 ANTAGONIST AND USES THEREOF” (AMIRA PHARMACEUTICALS, INC., priority 2010, published 2017).
In brackets after ≈: the same amount, converted by molar mass.

Columns and labels:
[1] = Solubility assessment at various pH levels (solubility profile); assay type: physicochemical; settings: 0.15M NaCl solution, saline or isotonic, thermodynamic from solid
Method: For solubility assessment at various pH levels sufficient material to produce a maximum concentration of 10 mg·ml^−1 of API was treated with 0.15M NaCl solution and then the pH adjusted with HCl or NaOH solutions to achieve the desired pH levels. The suspensions were allowed to equilibrate for 2 hours and the pH measured and adjusted if necessary. Suspensions were then filtered and the amount of dissolved API quantified by HPLC against a standard reference solution.
Analysis was performed on an Agilent HP1100 series system equipped with a diode array detector and using ChemStation software vB.02.01-SR1.
The solubility of both the free acid and amorphous sodium salt was determined at a range of pH values.

[2] = Metabolite identification in liver microsomes; assay type: in vitro ADME, rat, dog, monkey, human; settings: human microsomes
Method: To determine the qualitative metabolic profile, 30 μM of Compound 1 was incubated aerobically with rat, dog, monkey, or human liver microsomes (1 mg/mL). The incubations were performed in phosphate buffer at pH 7.4, 37° C., with the reaction initiated by the addition of P-NADPH, GSH and/or UDPGA (1, 5 and 2 mM final concentration, respectively). The reaction was terminated by the addition of 3 times incubation volume of acetonitrile after 60 minutes. The sample was centrifuged and the supernatant was transferred, nitrogen blow dried and reconstituted in 50% acetonitrile in water for LC/MS analysis.
LC/MS/MS analysis was carried out with a Sciex API-4000Qtrap tandem mass spectrometer (Applied Biosystems/Life Technologies, Carlsbad, Calif.) interfaced to a high-performance liquid chromatography system consisting of an Agilent 1200 series pump (Foster City, Calif.) and a LEAP Technologies PAL autoinjector (Carrboro, N.C.).
Parent/metabolite analysis was conducted in the positive ion mode (ESI) by multiple reaction monitoring of parent. The mobile phases contained 10 mM ammonium acetate in water with 0.05% formic acid (solvent A) and 10 mM ammonium acetate in 50% acetonitrile/50% methanol with 0.05% formic acid (solvent B). For Compound 1, the flow rate was maintained at 1 mL/min and the total run time was 2.5 min. Analytes were separated on a YMC ODS-AQ column (2.1×150 mm; 3 μm) and eluted with a linear gradient as follows: • 1. mobile phase was held for 0.5 min at 5% B, • 2. B was increased from 5% to 95% over the next 0.2 min, • 3. B was held constant for 1.3 min at 95%, and • 4. B was returned to the initial gradient conditions.
GSH adducts were investigated in microsomes, hepatocytes and rat bile using several methods including the neutral loss of pyroglutamate (129 Da) as well as a precursor ion scans of Compound 1 (105 Da, 318 Da and 438 Da).
For metabolite quantitation, the flow rate was maintained at 0.25 mL/min and the total run time was 60 min. Analytes were separated using a linear gradient as follows: • 1. mobile phase was held for 5 min at 5% B, • 2. […]

[3] = target: LPA5 (Homo sapiens, UniProt Q9H1C0); assay: LPA5 Calcium Flux Assay; assay type: cell-based; settings: read-out: Ca Flux IC50 LPA5
[4] = target: T1, human LPA2 (Homo sapiens, UniProt Q9HBW0); assay: LPA2 Calcium Flux Assay; assay type: cell-based; settings: 100 nM LPA; read-out: Ca Flux IC50 LPA2
T1 construct: endogenous in cells; host or cells: BT-20 human breast cancer cells
Method: A vector containing the human LPA2 receptor cDNA was obtained from the Missouri S&T cDNA Resource Center (www.cdna.org). The full-length cDNA fragment for human LPA2 was obtained by PCR from the vector. The nucleotide sequence of the cloned human LPA2 was determined by sequencing and confirmed to be identical to the published human LPA2 sequence (NCBI accession number NM_004720). The cDNA was cloned into the pCDNA3.1 expression plasmid and transfected into B103 cells (Invitrogen Corp., USA) by seeding cells in a 96-well poly-D-lysine coated plate at 30,000-35,000 cells per well together with 0.2 μl lipofectamine 2000 and 0.2 μg of the LPA2 expression vector. Cells were cultured overnight in complete media before being assayed for LPA-induced Ca-influx.
BT-20 human breast cancer cells are seeded at 25,000-35,000 cells per well in 150 μl complete media on Poly-D-Lysine coated black-wall clear-bottom plates. Following an overnight culture, cells are washed once with PBS then serum starved for 4-6 hours prior to the assay. […] Cells are the stimulated by the addition of 100 nM LPA and intracellular Ca^2+ measured using the Flexstation 3 (Molecular Devices). IC50s are determined using Symyx Assay Explorer analysis of drug titration curves.

[5] = system: human A2058 melanoma cells; assay: LPA1 Chemotaxis Assay; assay type: cell-based; settings: 100 nM LPA, read-out: IC50, LPA-driven chemotaxis
Method: Chemotaxis of the A2058 human melanoma cells was measured using the Neuroprobe ChemoTx® System plates (8 μm pore size, 5.7 mm diameter sites). The filter sites were coated with 0.001% fibronectin (Sigma) in 20 mM Hepes, pH 7.4 and allowed to dry. A2058 cells were serum-starved for 24 hours, then harvested with Cell Stripper and resuspended in DMEM containing 0.1% fatty-acid-free bovine serum albumin (BSA) to a concentration of 1×10^6/ml. Cells were mixed with an equal volume of test compound (2×) in DMEM containing 0.1% fatty-acid-free BSA and incubated at 37° C. for 15 minutes. LPA (100 nM in DMEM containing 0.1% fatty-acid-free BSA) or vehicle was added to each well of the lower chamber and 50 μl of the cell suspension/test compound mix was applied to the upper portion of the ChemoTx plate. Plates were incubated at 37° C. for three hours and then the cells removed from the upper portion by rinsing with PBS and scraping. The filter was dried then stained with HEMA 3 Staining System (Fisher Scientific). The absorbance of the filter was read at 590 nm and IC50s were determined using Symyx Assay Explorer.

LPA5, sequence (Q9H1C0 whole entry, species assumed): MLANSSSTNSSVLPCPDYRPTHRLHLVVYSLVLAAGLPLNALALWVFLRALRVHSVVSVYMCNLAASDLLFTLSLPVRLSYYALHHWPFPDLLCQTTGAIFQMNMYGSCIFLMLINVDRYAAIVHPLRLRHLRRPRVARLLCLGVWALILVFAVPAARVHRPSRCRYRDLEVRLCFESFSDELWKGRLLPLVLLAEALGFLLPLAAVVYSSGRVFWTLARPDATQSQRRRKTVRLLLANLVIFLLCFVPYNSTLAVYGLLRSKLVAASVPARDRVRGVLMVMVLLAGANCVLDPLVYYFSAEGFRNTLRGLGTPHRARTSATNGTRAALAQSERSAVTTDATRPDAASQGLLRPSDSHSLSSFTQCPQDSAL
T1 sequence (Q9HBW0 whole entry): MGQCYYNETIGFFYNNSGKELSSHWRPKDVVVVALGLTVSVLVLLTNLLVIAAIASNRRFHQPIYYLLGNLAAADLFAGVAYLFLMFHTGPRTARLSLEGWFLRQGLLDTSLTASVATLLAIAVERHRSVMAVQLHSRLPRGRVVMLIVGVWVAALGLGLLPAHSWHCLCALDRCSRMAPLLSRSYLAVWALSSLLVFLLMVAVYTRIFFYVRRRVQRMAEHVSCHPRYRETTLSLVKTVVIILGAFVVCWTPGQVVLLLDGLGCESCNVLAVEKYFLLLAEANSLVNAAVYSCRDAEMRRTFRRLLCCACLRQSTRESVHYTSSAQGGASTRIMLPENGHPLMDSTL

solubility at 2 h ([1]; Target pH 3, pH adjusted with HCl or NaOH): < 1 µg/mL
solubility at 2 h ([1]; Target pH 4, pH adjusted with HCl or NaOH): < 1 µg/mL
solubility at 2 h ([1]; Target pH 5, pH adjusted with HCl or NaOH): < 1 µg/mL
solubility at 2 h ([1]; Target pH 6, pH adjusted with HCl or NaOH): < 1 µg/mL
solubility at 2 h ([1]; Target pH 7, pH adjusted with HCl or NaOH): 3.3 µg/mL (≈ 6.84 µM)
solubility at 2 h ([1]; Target pH 8, pH adjusted with HCl or NaOH): 35 µg/mL (≈ 72.5 µM)
solubility at 2 h ([1]; Target pH 9, pH adjusted with HCl or NaOH): 930 µg/mL (≈ 1930 µM)
solubility at 2 h ([1]; Target pH 11, pH adjusted with HCl or NaOH): 13000 µg/mL (≈ 26900 µM)
GSH adduct in microsomes [2]: No GSH adduct was observed
IC50 [3]: > 1000 nM
IC50 [4]: > 1000 nM
IC50 [5]: < 100 nM
SMILES: Cc1noc(-c2ccc(-c3ccc(C4(C(=O)O)CC4)cc3)cc2)c1NC(=O)O[C@H](C)c1ccccc1 [Compound 1, 1-{4′-[3-methyl-4-((R)-1-phenyl-ethoxycarbonylamino)-isoxazol-5-yl]-biphenyl-4-yl}-cyclopropanecarboxylic acid]
